# Experimental data taken from patent US6806267B1, “Apoptosis-inducing compounds” (priority 1998, dated 2004).
# Columns and labels:
# NFκB [1] = experiment: NF kappa B binding activity, Hut-78 cells; assay type: cell-based, human
# Experimental: (§1) Cells were fractionated, and nuclear extracts were prepared as described by Stylianou et al. (1992). Briefly, cells were added to ice-cold phosphate-buffered saline and centrifuged using a swing out rotor at 136×g. They were washed in buffer A (10 mM Hepes, pH 7.9, 1.5 mM MgCl2, 10 mM KCl, […] [PMSF]) and centrifuged at 10000×g for 10 min. They were treated with buffer A+0.1% (vol/vol) Nonidet P40 on ice for 10 min. They were then centrifuged at 10000×g for 10 min and the pellet was treated with buffer C (20 mM Hepes, pH 7.9, 420 mM NaCl, 1.5 mM MgCl2, 2 mM EDTA, 20% [vol/vol] glycerol, 0.5 mM PMSF) on ice for 15 min. This material was centrifuged at 10000×g for 10 min and the supernatant was added to 75 u l of buffer D [10 mM Hepes, pH 7.9, 50 mM KCl, 0.2 mM EDTA, 20% (vol/vol) glycerol, 0.5 mM PMSF] per sample. The protein concentration in this crude nuclear extract was determined using the method of Bradford (1976). Protein (4 μg) was incubated with 10000 cpm of a ^32P-labelled oligonucleotide, containing the consensus sequence for NF kappa B, with binding buffer [40% (vol/vol) glycerol, 1 mM EDTA, 10 mM Tris, pH 7.5, 100 mM NaCl, 0.1 mg/ml nuclease free BSA] and 2 μg of poly(dI-dC) at room temperature for 30 min. Samples were resolved on a 5% native polyacrylamide gel which was subsequently dried and autoradiographed at −70° C. overnight.
# [2] = test system: CML cell lines K562, KYO.1 and Lama 84; experiment: Agarose gel electrophoresis of DNA ladders, CML cells; assay type: cell-based, human; conditions: all three CML cell lines
# JNK1 and JNK2 = experiment: Western blot of JNK activation in HL-60 cells; assay type: cell-based, human
# BCR-abl = experiment: Western blot analysis of BCR-abl in CML cells; assay type: cell-based, human
# [3] = target: T1, peripheral-type benzodiazepine receptor (PBR) (Homo sapiens, UniProt P30536); experiment: Radioligand binding assay, inhibition of [^3H]PK 11195 binding to HL-60 homogenates; conditions: HL-60 homogenates, 2 nM [^3H]PK 11195; mean±SEM; read-out: Inhibition of [^3H]PK 11195 binding to the PBR, Ki value
# T1 construct: Cell homogenates (50 μg protein) were incubated with 0.5-50 nM [^3H]; PK 11195; endogenous in cells; host or cells: HL-60 cell homogenate
# T1 sequence (P30536 whole entry): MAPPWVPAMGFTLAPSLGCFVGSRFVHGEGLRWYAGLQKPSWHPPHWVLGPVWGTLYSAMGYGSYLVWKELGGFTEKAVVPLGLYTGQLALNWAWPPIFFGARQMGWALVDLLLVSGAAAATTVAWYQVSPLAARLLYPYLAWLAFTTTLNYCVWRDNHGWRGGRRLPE
# Experimental: HL-60 cells were harvested by centrifugation at 600 g for 5 min and washing in phosphate-buffered saline. The resulting cell pellet was homogenised in 50 mM Tris/HCl buffer, pH 7.4 (2 ml), using an Ultraturrax homogeniser (10 sec) and then passed 5 times through a 21 gauge needle. Cell homogenates (50 μg protein) were incubated with 0.5-50 nM [^3H] PK 11195 in 50 mM Tris/HCl buffer, pH 7.4 (incubation buffer), in a total volume of 0.5 ml on ice. Total and non-specific/non-saturable binding in each case was determined in the absence and presence of 10 μM unlabelled PK 11195 respectively. All samples were incubated in triplicate for 60 min. The incubation mixtures were then filtered and counted as previously described (O'Beirne, et al., 1988). When testing the potency of a compound to inhibit [^3H] PK 11195 binding, samples were incubated with 2 nM [3H] PK 11195 and various concentrations (0.1 nM to 1 μM) of compound and subsequently treated exactly as above. The resulting Ki values were then generated by the use of the computer programs EBDA and LIGAND.
# The amount of radioactivity bound in the presence of the displacer was expressed as a percentage of control bonding and the values represent the mean±SEM of triplicate determinations from one representative experiment performed at least twice. The Ki values were obtained as described in Methods section.
# NFκB [4] = experiment: NF kappa B binding activity, HL-60 nuclear extracts; assay type: cell-based, human; conditions: HL-60 cells
# Experimental: as §1
# Jurkat cells = assay type: cell-based, human; conditions: 0.5 μM 1 hour, then etoposide 2.5 μM 1 hour
# Experimental: (§2) This assay was set up as described by Kohn et al., 1976 with the following modifications.
# (§3) Cells were seeded at 0.4×10^6 cells/ml and were in the logarithmic phase of growth. […] Cells harvested for the experiments were at a density of 2×10^6 cells/ml.
# (§4) Cells (1×10^6) were labelled with [^3H] thymidine (sp. act. 2 Ci/mmol) (0.2 μCi/ml) and 1 μM unlabelled thymidine, and incubated for 20 hr. Cells were harvested by centrifugation at 500×g for 5 mins following by two washes in PBS and the pellet was resuspended in 3 ml of PBS. Cells were aliquoted into 1 ml amounts in a 24 well plate and allowed to recover for 1 hr at 37° C. before treating with indicated compounds. Following treatment, cells were washed once in PBS and resuspended in 250 μl of PBS. An aliquot of cells (200 μl) was loaded directly onto a 25 mm diameter glass fiber filter, pore size of 0.2 μM. The cells were lysed on the filter by the addition of 5 ml lysis buffer (2% (w/v) SDS, 10 mM disodium EDTA (pH 10) supplemented with 0.5 mg/ml proteinase K. The lysis buffer was allowed to flow slowly through the filter without suction. Filters were washed using 3 ml wash solution (0.02M Na3EDTA pH 10) allowing it to flow without suction. Filters were eluted in the dark with an alkaline solution (0.04M EDTA plus tetrapropylammonium hydroxide (10% in H2O ) added in the amount required to give pH 12.1). The elution apparatus consisted of a filter funnel with output tubing passing through a peristaltic pump to a collector. Elution took place overnight at a flow rate of 0.05 ml/min. Following elution, filters were treated with 0.4 ml HCl (1N) for 1 hr at 70° C. followed by 2.5 ml NaOH (0.4N) for 30 min at room temp. Scintillation fluid (10 ml) was added and radioactivity remaining on the filters was determined by scintillation counting.
# K562 cells = assay type: cell-based, human; conditions: 3 hours
# Experimental: as §2, §3, §4
smiles,measurement,setting,value
"CN(C)C(=O)OC1=C(c2cccc3ccccc23)Oc2ccccc2-n2cccc21 [PBOX-6, 7-((Dimethylcarbamoyl)oxy)-6-(1-naphthyl)pyrrolo[2,1-d][1,5]benzoxazepine]",effect on NFκB,NFκB [1],had no effect on NFκB
same,internucleosomal DNA fragmentation (DNA ladders),[2],DNA laddering pattern was visible
same,activation of JNK,JNK1 and JNK2,transient activation of 2 JNK isoforms
same,time of peak JNK activation,JNK1 and JNK2,1 h
same,BCR-abl expression,BCR-abl; K562 and KYO.1 cells,"downregulation of BCR-abl was detected, but not until 24 hours"
same,downregulation of BCR-abl,"BCR-abl; Lama 84 cells, up to 72 hours",not detected
same,Ki,[3],6.7 ± 1.7 nM
same,effect on NFκB,NFκB [4],failed to affect NFκB expression
same,effect of pretreatment on etoposide induced DNA strand breaks,Jurkat cells,did not prevent the induction of DNA strand breaks by etoposide
same,DNA strand breaks,K562 cells,did not show any significant increase in DNA strand breaks
